Experiments:
MIAPACA-2 = test: Cancer cell growth inhibition, MIAPACA-2; assay type: cell-based, human; details: Homo sapiens, MIA PaCa-2; MIAPACA-2, Pancreatic Cancer, 72 h treatment
Protocol: (§1) Cell culture-based assays were used to evaluate the ability of compounds of the invention to inhibit cancer cell growth inhibition.
(§2) Cells were obtained from the American Type Culture Collection (ATCC). Cells were cultured at 37° C. with 5% CO2 in the appropriate growth medium (see table below), and harvested respectively during the logarithmic growth period and counted with hemocytometer. The cell viability was over 98% by trypan blue exclusion. Cell concentrations were adjusted between 5×10^4 and 2×10^5 cells/ml with respective medium.
(§3) Stock solutions of test compounds and positive drugs Doxorubicin (Zhejiang, Haizheng, China), Paclitaxel (Beijing, Xiehe, China), Vincristin (Shenzhen Wanle, China), 5-FU (Tianjin jinyaoanjisuan, China), Irinotecan (Jiangsu Hengrui, China) and Cisplatin Nanjing zhiyao, China) were prepared in dimethyl sulphoxide (DMSO) or PBS at 20 mM.
(§4) All treatments were performed in triplicate. 10 μl drug solution was added to each well and incubated for 72 hours. At the end of the incubation, 20 μl of the freshly prepared MTS/PMS mixture solution was added to each well and incubated for 4 hours at 37° C. in a humidified, 5% CO2 atmosphere. Absorbance was read at 490 nm using SpectraMAX Plus microplate spectrophotometer. […] In order to calculate IC50, a dose-responsive curve was fitted using nonlinear regression model with a sigmoidal dose response.

MCF-7-FL = test: Cancer cell growth inhibition, MCF-7-FL; assay type: cell-based; details: Homo sapiens, Breast Cancer, 72 h treatment
Protocol: as §1, §2, §3, §4

Human HDAC1 = Human HDAC1 (Homo sapiens (Human), UniProt Q13547); test: HDAC1 fluorogenic peptide deacetylation assay; assay type: biochemical; details: human HDAC1, 50 μM substrate, 30° C., 2 h; read-out: IC50 (nM) of enzyme activity HDAC1
Chain of Human HDAC1 (Q13547 whole entry): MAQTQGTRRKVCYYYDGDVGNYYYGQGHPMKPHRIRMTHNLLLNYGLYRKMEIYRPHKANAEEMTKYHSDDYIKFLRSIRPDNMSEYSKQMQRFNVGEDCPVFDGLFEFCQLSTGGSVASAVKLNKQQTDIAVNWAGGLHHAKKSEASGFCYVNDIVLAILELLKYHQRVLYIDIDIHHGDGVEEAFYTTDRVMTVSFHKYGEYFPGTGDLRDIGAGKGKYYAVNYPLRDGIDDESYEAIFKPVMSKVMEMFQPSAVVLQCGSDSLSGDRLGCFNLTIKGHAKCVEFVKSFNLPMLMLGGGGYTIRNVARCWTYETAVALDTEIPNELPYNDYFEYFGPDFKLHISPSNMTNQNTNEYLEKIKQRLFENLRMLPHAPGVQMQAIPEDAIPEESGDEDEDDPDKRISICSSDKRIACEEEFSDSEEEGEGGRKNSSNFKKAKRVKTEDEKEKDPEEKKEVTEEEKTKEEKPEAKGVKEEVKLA

Human HDAC6 = Human HDAC6 (Homo sapiens (Human), UniProt Q9UBN7); test: HDAC6 fluorogenic peptide deacetylation assay; assay type: biochemical; details: human HDAC6, 50 μM substrate, 30° C., 2 h; read-out: IC50 (nM) of enzyme activity HDAC6
Chain of Human HDAC6 (Q9UBN7 whole entry): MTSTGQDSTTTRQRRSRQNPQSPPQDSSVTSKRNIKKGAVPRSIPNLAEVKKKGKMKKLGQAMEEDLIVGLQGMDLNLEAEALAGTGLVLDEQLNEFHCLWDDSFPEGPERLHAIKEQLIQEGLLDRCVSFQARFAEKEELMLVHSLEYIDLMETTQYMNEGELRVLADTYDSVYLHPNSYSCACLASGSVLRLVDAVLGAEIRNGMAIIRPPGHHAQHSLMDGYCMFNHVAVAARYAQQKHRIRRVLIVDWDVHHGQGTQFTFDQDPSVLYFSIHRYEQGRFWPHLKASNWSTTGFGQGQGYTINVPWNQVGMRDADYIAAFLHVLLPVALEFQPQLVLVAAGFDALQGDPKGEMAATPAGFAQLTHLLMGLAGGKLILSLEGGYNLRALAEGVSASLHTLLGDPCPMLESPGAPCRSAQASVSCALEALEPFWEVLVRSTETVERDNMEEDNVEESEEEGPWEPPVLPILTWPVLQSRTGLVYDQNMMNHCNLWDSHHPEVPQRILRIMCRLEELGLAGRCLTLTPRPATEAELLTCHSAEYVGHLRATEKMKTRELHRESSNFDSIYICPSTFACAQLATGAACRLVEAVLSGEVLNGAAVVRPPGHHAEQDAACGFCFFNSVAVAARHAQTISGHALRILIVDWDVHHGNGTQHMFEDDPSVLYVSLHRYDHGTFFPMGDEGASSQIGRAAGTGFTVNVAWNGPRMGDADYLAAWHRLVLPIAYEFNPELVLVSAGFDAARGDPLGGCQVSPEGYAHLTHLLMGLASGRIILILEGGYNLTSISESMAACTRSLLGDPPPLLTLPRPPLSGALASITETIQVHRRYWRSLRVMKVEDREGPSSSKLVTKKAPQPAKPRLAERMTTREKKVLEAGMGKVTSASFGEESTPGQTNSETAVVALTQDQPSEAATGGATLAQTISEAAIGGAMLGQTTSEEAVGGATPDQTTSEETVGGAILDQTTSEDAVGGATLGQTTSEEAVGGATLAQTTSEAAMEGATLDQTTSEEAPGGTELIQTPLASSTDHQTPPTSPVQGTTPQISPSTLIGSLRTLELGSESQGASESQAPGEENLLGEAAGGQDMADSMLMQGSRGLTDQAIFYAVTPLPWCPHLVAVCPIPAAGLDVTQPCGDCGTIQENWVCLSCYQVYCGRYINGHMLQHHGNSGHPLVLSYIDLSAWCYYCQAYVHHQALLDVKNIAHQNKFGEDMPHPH

MCG803 = test: Cancer cell growth inhibition, MCG803; assay type: cell-based, human; details: Homo sapiens; MCG803, Gastric Cancer, 72 h treatment
Protocol: as §1, §2, §3, §4

HepG2 = test: Cancer cell growth inhibition, HepG2; assay type: cell-based, human; details: Homo sapiens; HepG2, Liver Cancer, 72 h treatment
Protocol: as §1, §2, §3, §4

SK-OV-3 = test: Cancer cell growth inhibition, SK-OV-3; assay type: cell-based, human; details: Homo sapiens; SK-OV-3, Ovarian Cancer, 72 h treatment
Protocol: as §1, §2, §3, §4

HT-1080 = test: Cancer cell growth inhibition, HT-1080; assay type: cell-based; details: Homo sapiens; HT-1080, Fibrosarcoma, 72 h treatment
Protocol: as §1, §2, §3, §4

SW620 = test: Cancer cell growth inhibition, SW620; assay type: cell-based, human; details: Homo sapiens, SW-620; SW620, Colorectal Cancer, 72 h treatment
Protocol: as §1, §2, §3, §4

DLD-1 = test: Cancer cell growth inhibition, DLD-1; assay type: cell-based, human; details: Homo sapiens; DLD-1, Colorectal Cancer, 72 h treatment
Protocol: as §1, §2, §3, §4

Human HDAC2 = Human HDAC2 (Homo sapiens (Human), UniProt Q92769); test: HDAC2 fluorogenic peptide deacetylation assay; assay type: biochemical; details: human HDAC2, 50 μM substrate, 30° C., 2 h; read-out: IC50 (nM) of enzyme activity HDAC2
Chain of Human HDAC2 (Q92769 whole entry): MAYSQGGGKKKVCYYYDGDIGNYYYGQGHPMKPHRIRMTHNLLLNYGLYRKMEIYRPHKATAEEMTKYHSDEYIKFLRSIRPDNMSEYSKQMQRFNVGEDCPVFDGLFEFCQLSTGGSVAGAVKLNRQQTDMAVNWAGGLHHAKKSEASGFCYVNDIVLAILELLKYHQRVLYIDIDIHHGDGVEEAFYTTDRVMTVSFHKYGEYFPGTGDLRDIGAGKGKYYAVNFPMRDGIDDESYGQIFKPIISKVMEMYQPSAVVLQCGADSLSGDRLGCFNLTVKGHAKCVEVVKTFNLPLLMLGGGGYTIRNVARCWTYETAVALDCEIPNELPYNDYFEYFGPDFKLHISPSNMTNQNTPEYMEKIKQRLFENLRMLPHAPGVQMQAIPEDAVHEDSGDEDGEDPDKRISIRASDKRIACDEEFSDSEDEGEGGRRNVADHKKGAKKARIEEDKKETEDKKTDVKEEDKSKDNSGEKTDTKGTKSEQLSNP

CNE2 = test: Cancer cell growth inhibition, CNE2; assay type: cell-based, human; details: Homo sapiens, CNE-2; CNE2, Nasopharyngeal Cancer, 72 h treatment
Protocol: as §1, §2, §3, §4

HCT-116 = test: Cancer cell growth inhibition, HCT-116; assay type: cell-based, human; details: Homo sapiens; HCT-116, Colorectal Cancer, 72 h treatment
Protocol: as §1, §2, §3, §4

LNCaP = test: Cancer cell growth inhibition, LNCaP; assay type: cell-based, human; details: Homo sapiens, Prostate Cancer, 72 h treatment
Protocol: as §1, §2, §3, §4

SK-MES-1 = test: Cancer cell growth inhibition, SK-MES-1; assay type: cell-based, human; details: Homo sapiens; SK-MES-1, Lung Cancer, 72 h treatment
Protocol: as §1, §2, §3, §4

Colo205 = test: Cancer cell growth inhibition, Colo205; assay type: cell-based; details: Homo sapiens, COLO 205; Colo205, Colorectal Cancer, 72 h treatment
Protocol: as §1, §2, §3, §4

PC-3 = test: Cancer cell growth inhibition, PC-3; assay type: cell-based, human; details: Homo sapiens; PC-3, Prostate Cancer, 72 h treatment
Protocol: as §1, §2, §3, §4

786-O = test: Cancer cell growth inhibition, 786-O; assay type: cell-based, human; details: Homo sapiens, 786-0, Kindney Cancer, 72 h treatment
Protocol: as §1, §2, §3, §4

SK-HEP-1 = test: Cancer cell growth inhibition, SK-HEP-1; assay type: cell-based; details: Homo sapiens, SK-HEP1; SK-HEP-1, Liver Cancer, 72 h treatment
Protocol: as §1, §2, §3, §4

NCI-H460 = test: Cancer cell growth inhibition, NCI-H460; assay type: cell-based, human; details: Homo sapiens; NCI-H460, Lung Cancer, 72 h treatment
Protocol: as §1, §2, §3, §4

MCF-7 = test: Cancer cell growth inhibition, MCF-7; assay type: cell-based, human; details: Homo sapiens, MCF7; MCF-7, Breast Cancer, 72 h treatment
Protocol: as §1, §2, §3, §4

NCI-H226 = test: Cancer cell growth inhibition, NCI-H226; assay type: cell-based, human; details: Homo sapiens; NCI-H226, Lung Cancer, 72 h treatment
Protocol: as §1, §2, §3, §4

[1] = system: Nuclear Extract from HeLa Cells; test: HeLa Nuclear Extract HDAC assay; assay type: biochemical, human; details: 50 μM substrate, 30° C., 2 h, read-out: IC50 (nM) of enzyme activity HeLa
Human HDAC8 = Human HDAC8 (Homo sapiens (Human), UniProt Q9BY41); test: HDAC8 fluorogenic peptide deacetylation assay; assay type: biochemical; details: human HDAC8, 50 μM substrate, 30° C., 2 h; read-out: IC50 (nM) of enzyme activity HDAC8
Chain of Human HDAC8 (Q9BY41 whole entry): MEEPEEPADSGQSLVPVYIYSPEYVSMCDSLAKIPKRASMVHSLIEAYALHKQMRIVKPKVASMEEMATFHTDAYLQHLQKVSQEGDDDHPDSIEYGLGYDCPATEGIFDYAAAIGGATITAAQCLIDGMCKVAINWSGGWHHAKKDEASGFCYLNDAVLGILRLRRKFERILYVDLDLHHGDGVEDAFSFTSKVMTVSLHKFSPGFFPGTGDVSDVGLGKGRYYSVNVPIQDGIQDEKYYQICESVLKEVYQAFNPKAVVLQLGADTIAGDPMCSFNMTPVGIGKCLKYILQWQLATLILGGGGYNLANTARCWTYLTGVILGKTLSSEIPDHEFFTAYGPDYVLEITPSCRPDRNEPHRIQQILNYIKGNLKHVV

Row | SMILES | IC50 (MIAPACA-2) [nM] | IC50 (MCF-7-FL) [µM] | IC50 (Human HDAC1) [nM] | IC50 (Human HDAC6) [nM] | IC50 (MCG803) [nM] | IC50 (HepG2) [µM] | IC50 (SK-OV-3) [nM] | IC50 (HT-1080) [nM] | IC50 (SW620) [nM] | IC50 (DLD-1) [µM] | IC50 (Human HDAC2) [nM] | IC50 (CNE2) [µM] | IC50 (HCT-116) [nM] | IC50 (LNCaP) [µM] | IC50 (SK-MES-1) [µM] | IC50 (Colo205) [µM] | IC50 (PC-3) [nM] | IC50 (786-O) [µM] | IC50 (SK-HEP-1) [µM] | IC50 (NCI-H460) [µM] | other results
1 | O=C(NO)c1ccc(CNC(=O)c2[nH]c(-c3ccoc3)cc2-c2ccc(O)cc2)cc1 [Example 9, 5-(3-furyl)-N-{4-[(hydroxyamino)carbonyl]benzyl}-3-(4-hydroxyphenyl)-1H-pyrrole-2-carboxamide] | 2810 | 7.72 | 378 | 6.8 | 1100 | 5.01 | 4170 | 1840 | 1820 | 6.87 | 909 | 9.54 | 1990 | 9.91 | 7.76 | 4.91 | 3000 | 13.4 | 4.47 | 10.5 | IC50 (MCF-7): 4.49 µM; IC50 (NCI-H226): 11.9 µM; IC50 [1]: 26 nM; IC50 (Human HDAC8): 227 nM
2 | O=C(NO)c1ccc(CNC(=O)c2[nH]c(-c3ccc(O)cc3)cc2-c2ccsc2)cc1 [Example 14, N-{4-[(hydroxyamino)carbonyl]benzyl}-5-(4-hydroxyphenyl)-3-(3-thienyl)-1H-pyrrole-2-carboxamide] | 428 | 6.64 | 84.2 | 0.44 | 3270 | 2.01 | 1630 | 1530 | 1530 | 24.5 | 318 | 11.4 | 80.4 | 4.11 | 18.5 | 1.56 | 2400 | 8.66 | 1.75 | 26.7 | IC50 (MCF-7): 10.1 µM; IC50 (NCI-H226): 21.3 µM; IC50 [1]: 6.7 nM; melting point: 121 to 122 °C; IC50 (Human HDAC8): 64.1 nM

From US8685992B2, “Histone deacetylase inhibitors based simultaneously on trisubstituted 1H-pyrroles and aromatic and heteroaromatic spacers” (Universidad del País Vasco, priority 2009, dated 2014)
